# Test results reported in US20210262029A1, “TREATMENT OF KCNQ2 AND KCNQ3 GAIN OF FUNCTION-ASSOCIATED DISORDERS” (The Trustees of Columbia University in the City of New York, priority 2018, published 2021).
# Assays:
# [1] = molecular target: KCNQ3 (Homo sapiens, UniProt O43525); conditions: homomeric KCNQ3 wild type, CHO cells
# Excerpt: (§1) Variants were introduced in KCNQ3 human cDNA cloned into pcDNA3.1 by QuikChange site-directed mutagenesis (Agilent Technologies, Milan, Italy), as previously described.^12 Channel subunits were expressed in Chinese hamster ovary (CHO) cells by transient transfection using Lipofectamine 2000 (Invitrogen, Carlsbad, Calif.) according to the manufacturer's protocol.^17 A plasmid encoding enhanced green fluorescent protein (Clontech Laboratories, Mountain View, Calif.) was used as a transfection marker; total cDNA in the transfection mixture was kept constant at 4 μg.
# (§2) Currents were recorded under whole-cell patch-clamp at room temperature (20-22° C.) 1 to 2 days after transfection as reported.^12 Current densities (expressed in pA/pF) were calculated as peak K^+ currents at 0 mV divided by cell capacitance. To generate conductance-voltage curves, the cells were held at −80 mV, then depolarized for 1.5 seconds from ˜120 to +20 mV in 10 mV increments, followed by an isopotential pulse at 0 mV of 300-millisecond duration. The current values recorded at the beginning of the 0 mV pulse were measured, normalized, and expressed as a function of the preceding voltages. The data were then fit to a Boltzmann distribution of the following form: y=max/[1+exp(V½−V)/k], where V is the test potential, V½ the half-activation potential, and k the slope factor.
# [2] = molecular target: KCNQ3 R2C (Homo sapiens, UniProt O43525, R230C); conditions: 30 mM TEA; homomeric KCNQ3 R2C (R230C); CHO cells
# Chain of KCNQ3 R2C (O43525 whole entry R230C): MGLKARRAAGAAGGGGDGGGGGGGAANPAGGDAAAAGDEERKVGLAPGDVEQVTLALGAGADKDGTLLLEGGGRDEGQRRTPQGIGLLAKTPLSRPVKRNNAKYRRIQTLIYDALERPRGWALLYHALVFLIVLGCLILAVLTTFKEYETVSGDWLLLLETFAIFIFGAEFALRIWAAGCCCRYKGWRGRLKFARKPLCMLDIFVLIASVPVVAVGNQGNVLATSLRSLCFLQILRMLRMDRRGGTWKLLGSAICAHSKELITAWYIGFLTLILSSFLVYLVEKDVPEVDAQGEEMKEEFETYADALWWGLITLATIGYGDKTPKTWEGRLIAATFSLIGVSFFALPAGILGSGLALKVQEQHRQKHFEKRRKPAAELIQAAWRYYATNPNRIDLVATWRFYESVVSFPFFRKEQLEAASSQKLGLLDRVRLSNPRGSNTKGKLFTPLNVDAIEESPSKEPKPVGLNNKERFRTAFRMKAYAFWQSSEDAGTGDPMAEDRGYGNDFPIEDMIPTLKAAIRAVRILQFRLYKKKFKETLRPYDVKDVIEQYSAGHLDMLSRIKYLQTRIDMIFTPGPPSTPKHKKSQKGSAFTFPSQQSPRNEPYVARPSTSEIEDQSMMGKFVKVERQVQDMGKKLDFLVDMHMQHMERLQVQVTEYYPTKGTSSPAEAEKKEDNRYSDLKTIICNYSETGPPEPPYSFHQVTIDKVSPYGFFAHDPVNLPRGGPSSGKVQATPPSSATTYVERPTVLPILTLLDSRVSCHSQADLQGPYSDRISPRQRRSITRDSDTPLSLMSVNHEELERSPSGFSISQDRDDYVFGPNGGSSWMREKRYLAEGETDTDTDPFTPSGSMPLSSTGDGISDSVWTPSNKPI
# Excerpt: as §1, §2
# [3] = molecular target: KCNQ3 R2S (Homo sapiens, UniProt O43525, R230S); conditions: 30 mM TEA; homomeric KCNQ3 R2S (R230S); CHO cells
# Chain of KCNQ3 R2S (O43525 whole entry R230S): as the sequence (O43525 whole entry R230C) above, with C230S counted along it
# Excerpt: as §1, §2
# [4] = molecular target: KCNQ3 R2H (Homo sapiens, UniProt O43525, R230H); conditions: 30 mM TEA; homomeric KCNQ3 R2H (R230H); CHO cells
# Chain of KCNQ3 R2H (O43525 whole entry R230H): as the sequence (O43525 whole entry R230C) above, with C230H counted along it
# Excerpt: as §1, §2
# [5] = molecular target: KCNQ3 R1Q (Homo sapiens, UniProt O43525, R227Q); conditions: 30 mM TEA; homomeric KCNQ3 R1Q (R227Q); CHO cells
# Chain of KCNQ3 R1Q (O43525 whole entry R227Q): as the sequence (O43525 whole entry R230C) above, with R227Q, C230R counted along it
# Excerpt: as §1, §2
# [6] = molecular target: KCNQ2 + KCNQ3 (Homo sapiens, UniProt O43525+O43526); conditions: KCNQ2 + KCNQ3 1:1, CHO cells
# Chain of KCNQ2 + KCNQ3 (O43526 1-844 isoform O43526-3): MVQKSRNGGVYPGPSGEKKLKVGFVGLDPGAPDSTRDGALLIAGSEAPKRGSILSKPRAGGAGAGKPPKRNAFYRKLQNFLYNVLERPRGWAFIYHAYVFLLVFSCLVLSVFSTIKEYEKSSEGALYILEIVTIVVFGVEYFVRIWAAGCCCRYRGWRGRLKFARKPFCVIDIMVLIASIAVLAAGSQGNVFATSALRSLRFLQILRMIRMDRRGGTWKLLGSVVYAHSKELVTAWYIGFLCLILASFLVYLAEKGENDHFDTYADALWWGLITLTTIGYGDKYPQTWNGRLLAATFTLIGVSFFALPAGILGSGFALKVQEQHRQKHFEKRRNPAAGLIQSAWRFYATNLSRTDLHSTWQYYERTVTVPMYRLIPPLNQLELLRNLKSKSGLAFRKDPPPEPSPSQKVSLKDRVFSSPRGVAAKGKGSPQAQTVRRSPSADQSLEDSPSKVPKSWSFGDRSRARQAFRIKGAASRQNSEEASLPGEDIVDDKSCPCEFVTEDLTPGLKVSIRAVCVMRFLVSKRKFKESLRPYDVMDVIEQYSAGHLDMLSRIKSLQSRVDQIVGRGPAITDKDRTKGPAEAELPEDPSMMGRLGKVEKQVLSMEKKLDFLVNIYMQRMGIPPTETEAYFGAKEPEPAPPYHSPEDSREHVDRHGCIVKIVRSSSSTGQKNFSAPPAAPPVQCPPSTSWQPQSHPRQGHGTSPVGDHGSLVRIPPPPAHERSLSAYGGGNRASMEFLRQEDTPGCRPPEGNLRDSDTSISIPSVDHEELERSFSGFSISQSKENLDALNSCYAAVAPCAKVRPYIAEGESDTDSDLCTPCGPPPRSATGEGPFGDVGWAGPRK
# Chain of KCNQ2 + KCNQ3 (O43525 whole entry): as the sequence (O43525 whole entry R230C) above, with C230R counted along it
# Excerpt: (§3) To mimic the genetic condition of patients, who carry a single mutant allele, and considering that IKM in adult neurons is mainly formed by tetrameric co-assembly of KCNQ2 and KCNQ3 subunits, we transfected CHO cells with KCNQ2 and KCNQ3 cDNAs in a 1:1 ratio (to mimic the genetic balance of normal individuals), and KCNQ2+KCNQ3+mutant KCNQ3 1:0.5:0.5 ratio (to mimic the genetic balance of affected individuals).
# as §1, §2
# [7] = system: KCNQ2 + KCNQ3 + KCNQ3 R1Q; conditions: KCNQ2 + KCNQ3 + KCNQ3 R1Q 1:0.5:0.5, CHO cells
# Excerpt: as §3, §1, §2
# [8] = system: KCNQ2 + KCNQ3 + KCNQ3 R2H; conditions: KCNQ2 + KCNQ3 + KCNQ3 R2H 1:0.5:0.5, CHO cells
# Excerpt: as §3, §1, §2
# [9] = system: KCNQ2 + KCNQ3 + KCNQ3 R2S; conditions: KCNQ2 + KCNQ3 + KCNQ3 R2S 1:0.5:0.5, CHO cells
# Excerpt: as §3, §1, §2
# [10] = system: KCNQ2 + KCNQ3 + KCNQ3 R2C; conditions: KCNQ2 + KCNQ3 + KCNQ3 R2C 1:0.5:0.5, CHO cells
# Excerpt: as §3, §1, §2
# Chain of KCNQ3 (O43525 whole entry): as the sequence (O43525 whole entry R230C) above, with C230R counted along it
compound,measurement,setting,value
"CC[N+](CC)(CC)CC [TEA, tetraethylammonium]","Blockade by TEA, % 0.3 mM",[1]; 0.3 mM TEA,6.4 ± 1.8%
same,"Blockade by TEA, % 3 mM",[1]; 3 mM TEA,13.0 ± 3.4%
same,"Blockade by TEA, % 30 mM",[1]; 30 mM TEA,61.7 ± 5.7%
same,"Blockade by TEA, % 30 mM",[2],58.6 ± 13%
same,"Blockade by TEA, % 30 mM",[3],66.1 ± 6.1%
same,"Blockade by TEA, % 30 mM",[4],70.9 ± 7.3%
same,"Blockade by TEA, % 30 mM",[5],61.1 ± 6.8%
same,"Blockade by TEA, % 0.3 mM",[6]; 0.3 mM TEA,15.6 ± 3.1%
same,"Blockade by TEA, % 3 mM",[6]; 3 mM TEA,50.5 ± 3.1%
same,"Blockade by TEA, % 30 mM",[6]; 30 mM TEA,78.8 ± 5.6%
same,"Blockade by TEA, % 0.3 mM",[7]; 0.3 mM TEA,19.3 ± 2.0%
same,"Blockade by TEA, % 3 mM",[7]; 3 mM TEA,44.1 ± 4.3%
same,"Blockade by TEA, % 30 mM",[7]; 30 mM TEA,85.3 ± 2.1%
same,"Blockade by TEA, % 0.3 mM",[8]; 0.3 mM TEA,20.8 ± 3.1%
same,"Blockade by TEA, % 3 mM",[8]; 3 mM TEA,47.4 ± 2.5%
same,"Blockade by TEA, % 30 mM",[8]; 30 mM TEA,78.8 ± 3.2%
same,"Blockade by TEA, % 0.3 mM",[9]; 0.3 mM TEA,12.9 ± 2.3%
same,"Blockade by TEA, % 3 mM",[9]; 3 mM TEA,43.6 ± 8.2%
same,"Blockade by TEA, % 30 mM",[9]; 30 mM TEA,80.1 ± 6.5%
same,"Blockade by TEA, % 0.3 mM",[10]; 0.3 mM TEA,14.0 ± 6.2%
same,"Blockade by TEA, % 3 mM",[10]; 3 mM TEA,47.1 ± 9.9%
same,"Blockade by TEA, % 30 mM",[10]; 30 mM TEA,77.0 ± 7.3%
